Source: patent publication US20260070887A1 (Shenzhen Zhongge Biological Technology Co., Ltd., priority 2022, published 2026)
Where two headings read alike, the source gives them in different places.

How the values were obtained:
KIF18A = KIF18A (Homo sapiens (Human), UniProt Q8NI77); assay: KIF18A ATPase activity under tubulin stimulation (ADP-Glo assay); format: biochemical; settings: KIF18A 30 nM, ATP 150 μM, pig microtubules
Protocol: This experiment assesses the inhibitory effect of the compounds of the present disclosure on the KIF18A target according to the IC50 values by measuring the KIF18A ATPase activity under tubulin stimulation with the presence of the compounds.
• 1. Preparation of 30 mL of reaction buffer: • (1) 450 μL 1M Tris-HCl (pH=7.5)+300 μL 1M MgCl2+30 μL 10% Pluronic F-68 (ThermoFisher, 24040032-100 ml); • (2) adjusting pH to 7.5, and adding water to adjust the volume to 30 mL. • 2. Preparation of a 5 mg/mL pig microtubule (Microtubules; MT) (Cytoskeleton Inc, MT002) stock solution: • (1) 10 mL PM buffer=150 μL 1 M PIPES (pH 7.0)+20 μL 0.5 mM MgCl2+100 μL 2 mM Taxol (Cytoskeleton Inc, TXD01)+9730 μL water. • (2) MT ([…]): Adding 100 μL PM buffer to prepare a 5 mg/mL stock solution. Keeping the MT (Cytoskeleton Inc, MT002) at room temperature for 10-15 minutes, gently mixing and storing same at −80° C. • 3. Preparation of 2 mL of kinase buffer: 2 mL reaction buffer+1 μL 2 mM Taxol (Cytoskeleton Inc, TXD01)+12 μL 5 mg/mL MT (Cytoskeleton Inc, MT002). • 4. Preparation of 2×KIF18A (30 nM) (ChemPartner, CPB-P22-31645) working solution: 2.4 μL 10 μM KIF18A (ChemPartner, CPB-P22-31645)+800 μL 1× kinase buffer. • 5. Preparation of 2×ATP (150 μM) (Promega, G9101) working solution: 12 μL 10 mM ATP+800 μL 1× kinase buffer. • 6. 25 nL of compound was transferred to a 384-well plate using Echo650. • 7. 2.5 μL of 2×KIF18A from Step 4 (final concentration of 30 nM) was added to the 384-well plate and the plate was incubated at 25° C. for 15 minutes. • 8. 2.5 μL of 2×ATP from Step 5 (final concentration of 150 μM) was added to the 384-well plate and the plate was incubated at 25° C. for 15 minutes. • 9. 5 μL ADP-Glo™ Reagent (Promega, G9101) was added to the 384-well plate and the plate was incubated at 25° C. for 40 minutes. • 10. 10 μL of kinase detection reagent (Promega, G9101) was added to the 384-well plate and the plate was incubated at 25° C. for 40 minutes. • 11. Luminescence values were measured using the EnVision Xcite Multilabel Reader (PerkinElmer, 2105-0020).

OVCAR-3 cells = assay: OVCAR-3 cell proliferation (Cell Titer-Glo, 10 days); format: cell-based, human
Protocol: The inhibitory effect on the KIF18A target by the compounds of the present disclosure was evaluated by testing the inhibitory effect on proliferation of OVCAR-3 cells by the compounds of the present disclosure.
The following method was used to determine the effect of the compounds of the present disclosure on the proliferation of human ovarian cancer cells Ovcar-3 (HTB-161, ATCC). Cells were cultured in RPMI-1640 complete medium containing 20% fetal bovine serum, 0.01 mg/mL bovine insulin, 100 U penicillin, and 100 μg/mL streptomycin. The Promega kit Cell Titer-Glo (Cat. No. G7572) was used in this method for test.
For specific steps, reference was made to the kit instructions, and the procedure was outlined below: Test compounds were dissolved in DMSO to prepare a 10 mM stock solution, which was diluted at the predetermined test concentrations, and the test compounds at different concentrations were added to a 384-well cell test plate using ECHO. In the plate pre-added with the test compounds, 400 OVCAR-3 cells in the logarithmic growth phase were seeded per well, ensuring the final concentration of the test compounds in the reaction system ranged between 0.12 nM and 10 μM. The co-culture was maintained in a cell culture incubator for 10 days. Before testing, the cell culture plate was equilibrated for 10 minutes at room temperature, 25 μL of Cell Titer-Glo was added to each well, and the mixture was shaken and mixed well and let stand for 5 minutes. The luminescence values for samples in various wells were read using a microplate reader in Luminescence mode.
The percentage of inhibition of cell proliferation by the test compound at each concentration was calculated by comparing with the values of the control group (0.1% DMSO). The IC50 values of the compounds were obtained by concentration-inhibition rate nonlinear regression analysis of the test compounds using GraphPad Prism 9.

KIF18A, sequence (Q8NI77 whole entry): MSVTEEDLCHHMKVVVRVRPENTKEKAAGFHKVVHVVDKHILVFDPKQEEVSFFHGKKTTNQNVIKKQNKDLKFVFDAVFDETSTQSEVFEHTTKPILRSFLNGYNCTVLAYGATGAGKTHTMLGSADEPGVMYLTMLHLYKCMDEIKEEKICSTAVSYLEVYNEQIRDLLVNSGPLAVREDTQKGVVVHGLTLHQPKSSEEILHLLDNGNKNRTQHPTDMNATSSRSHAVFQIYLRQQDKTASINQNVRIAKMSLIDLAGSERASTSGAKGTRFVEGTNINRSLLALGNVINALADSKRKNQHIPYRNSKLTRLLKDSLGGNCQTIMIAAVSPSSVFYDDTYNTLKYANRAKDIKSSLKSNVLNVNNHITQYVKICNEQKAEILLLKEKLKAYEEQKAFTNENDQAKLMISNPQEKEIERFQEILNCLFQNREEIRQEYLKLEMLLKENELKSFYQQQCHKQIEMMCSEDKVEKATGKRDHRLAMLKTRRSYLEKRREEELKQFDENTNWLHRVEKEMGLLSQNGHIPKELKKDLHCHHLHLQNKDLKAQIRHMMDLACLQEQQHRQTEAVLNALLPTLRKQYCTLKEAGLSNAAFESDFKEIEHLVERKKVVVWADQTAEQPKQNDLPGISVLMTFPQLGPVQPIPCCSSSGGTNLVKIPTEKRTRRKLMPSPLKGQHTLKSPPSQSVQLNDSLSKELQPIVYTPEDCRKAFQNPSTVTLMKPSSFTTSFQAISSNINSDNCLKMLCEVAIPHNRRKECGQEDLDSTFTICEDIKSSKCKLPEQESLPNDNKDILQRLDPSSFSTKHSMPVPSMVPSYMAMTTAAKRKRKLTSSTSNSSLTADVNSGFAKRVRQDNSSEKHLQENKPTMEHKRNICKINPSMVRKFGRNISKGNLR
KIF18A, sequence (P02550 whole entry partner): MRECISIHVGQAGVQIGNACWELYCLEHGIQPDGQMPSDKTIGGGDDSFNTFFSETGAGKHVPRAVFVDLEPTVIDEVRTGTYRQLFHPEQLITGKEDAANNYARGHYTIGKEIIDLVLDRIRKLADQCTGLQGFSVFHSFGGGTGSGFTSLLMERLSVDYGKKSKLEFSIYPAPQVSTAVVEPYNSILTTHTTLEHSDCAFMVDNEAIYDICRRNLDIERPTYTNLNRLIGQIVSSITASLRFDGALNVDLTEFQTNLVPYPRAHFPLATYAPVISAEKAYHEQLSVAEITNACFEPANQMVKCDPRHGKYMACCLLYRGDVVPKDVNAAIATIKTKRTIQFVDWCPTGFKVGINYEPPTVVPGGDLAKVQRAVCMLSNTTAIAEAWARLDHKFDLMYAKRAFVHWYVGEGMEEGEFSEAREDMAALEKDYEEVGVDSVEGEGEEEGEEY
KIF18A, sequence (P02554 whole entry partner): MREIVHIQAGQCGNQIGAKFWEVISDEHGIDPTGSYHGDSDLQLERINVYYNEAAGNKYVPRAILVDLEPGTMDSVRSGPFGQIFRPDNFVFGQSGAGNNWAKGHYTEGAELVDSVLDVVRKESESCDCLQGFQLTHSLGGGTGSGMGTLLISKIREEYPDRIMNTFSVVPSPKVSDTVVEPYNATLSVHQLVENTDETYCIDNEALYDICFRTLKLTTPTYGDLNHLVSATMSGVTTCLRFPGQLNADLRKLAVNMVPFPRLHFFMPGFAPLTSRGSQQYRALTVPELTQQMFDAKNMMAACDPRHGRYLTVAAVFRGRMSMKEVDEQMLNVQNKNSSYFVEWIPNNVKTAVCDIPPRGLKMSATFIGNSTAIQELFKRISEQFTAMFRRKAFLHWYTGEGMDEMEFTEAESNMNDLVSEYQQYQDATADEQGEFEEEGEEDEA

SMILES	IC50 (KIF18A)	IC50 (OVCAR-3 cells; Homo sapiens, OVCAR-3, 240 h)	IC50 (OVCAR-3 cells)
O=C(Nc1cccc2c1cc1n2CC(F)(F)CC1)c1ccc(NS(=O)(=O)CCO)cc1N1CCC2(CC1)CC2 [Example 341, N-(7,7-difluoro-6,7,8,9-tetrahydropyridino[1,2-a]indol-1-yl)-4-((2-hydroxyethyl)sulfonamido)-2-(6-azaspiro[2.5]oct-6-yl)benzamide]	50 to 500 nM	50 to 500 nM	
O=C(Nc1cccc2c1ccn2CC1CC1(F)F)c1ccc(NS(=O)(=O)CCO)cc1N1CCC2(CC1)CC2 (centres unmarked) [Example 286, N-(1-((2,2-difluorocyclopropyl)methyl)-1H-indol-4-yl)-4-((2-hydroxyethyl)sulfonamido)-2-(6-azaspiro[2.5]oct-6-yl)benzamide]	≤ 50 nM	50 to 500 nM	
O=C(Nc1cccc2c1cc1n2CCOC1=O)c1ccc(NS(=O)(=O)CCO)cc1N1CCC2(CC1)CC2 [Example 346, 4-((2-hydroxyethyl)sulfonamido)-N-(1-oxo-3,4-dihydro-1H-[1,4]oxazino[4,3-a]indol-9-yl)-2-(6-azaspiro[2.5]oct-6-yl)benzamide]	50 to 500 nM	> 5000 nM	
COc1ccc(NC(=O)c2ccc(NS(=O)(=O)CCO)cc2N2CCC3(CC2)CC3)c2cc3n(c12)CC(C)OC3C (centres unmarked) [Example 449]	50 to 500 nM		≤ 50 nM
CC1Cn2c(nc3c(NC(=O)c4ccc(NS(=O)(=O)CCO)cc4N4CCC5(CC4)CC5)cccc32)C(C)O1 (centres unmarked) [Example 444, 2-(6-azaspiro[2.5]oct-6-yl)-N-(1,3-dimethyl-3,4-dihydro-1H-benzo[4,5]imidazo[2,1-c][1,4]oxazin-9-yl)-4-{[(2-hydroxyethyl)sulfonamide]}benzamide]	≤ 50 nM		≤ 50 nM
Cc1ccc(NC(=O)c2ccc(NS(=O)(=O)CCO)cc2N2CCC(=C(F)F)CC2)c2cc3n(c12)CC(C)(C)OC3 [Example 526]	50 to 500 nM	50 to 500 nM	
COc1ccc(NC(=O)c2ccc(NS(=O)(=O)CCO)cc2N2CCC3(CC2)CC3)c2cc3n(c12)CCC(F)(F)C3O (centres unmarked) [Example 482, N-(8,8-difluoro-9-hydroxy-4-methoxy-6,7,8,9-tetrahydropyridino[1,2-a]indol-1-yl)-4-((2-hydroxyethyl)sulfonamido)-2-(6-azaspiro[2.5]oct-6-yl)benzamide]	≤ 50 nM	≤ 50 nM	
O=C(Nc1cc(F)cc2c1cc1n2CCOC1)c1ccc(NS(=O)(=O)CCO)cc1N1CCC(=C(F)F)CC1 [Example 367, 2-(4-(difluoromethylene)piperidin-1-yl)-N-(7-fluoro-3,4-dihydro-1H-[1,4]oxazino[4,3-a]indol-9-yl)-4-((2-hydroxyethyl)sulfonamido)benzamide]	≤ 50 nM	50 to 500 nM	
O=C(Nc1cccc2c1cc1n2CCCC1O)c1ccc(NS(=O)(=O)CCO)cc1N1CCC2(CC1)CC2 (centres unmarked) [Example 342, N-(9-hydroxy-6,7,8,9-tetrahydropyridino[1,2-a]indol-1-yl)-4-((2-hydroxyethyl)sulfonamido)-2-(6-azaspiro[2.5]octan-6-yl)benzamide]	≤ 50 nM	50 to 500 nM	
CCNC(=O)c1ccc(NC(=O)c2ccc(NS(=O)(=O)CCO)cc2N2CCC3(CC2)CC3)c2cc3n(c12)CC(C)(C)OC3 [Example 527]	50 to 500 nM	≤ 50 nM	
CC1(C)Cn2c(cc3c(NC(=O)c4ccc(NS(=O)(=O)CCO)cc4N4CCC5(CC4)CC5)ccc(Cl)c32)CO1 [Example 521, 2-(6-azaspiro[2.5]oct-6-yl)-N-(6-chloro-3,3-dimethyl-3,4-dihydro-1H-[1,4]oxazino[4,3-a]indol-9-yl)-4-{[(2-hydroxyethyl)sulfonamide]}benzamide]	50 to 500 nM		50 to 500 nM
O=C(Nc1ccc(NS(=O)(=O)CCO)cc1N1CCC2(CC1)CC2)c1cccc2c1cc1n2CCOC1 [Example 357]	≤ 50 nM		50 to 500 nM
COC1c2cc3c(NC(=O)c4ccc(NS(=O)(=O)CCO)cc4N4CCC5(CC4)CC5)ccc(C#N)c3n2CCC1(F)F (centres unmarked) [Compound 428, N-(4-cyano-8,8-difluoro-9-methoxy-6,7,8,9-tetrahydropyridino[1,2-a]indol-1-yl)-4-((2-hydroxyethyl)sulfonamido)-2-(6-azaspiro[2.5]oct-6-yl)benzamide]	50 to 500 nM	50 to 500 nM	
CC1(C)Cn2c(cc3c(NC(=O)c4ccc(NS(=O)(=O)CCO)cc4N4CCC(=C(F)F)CC4)ccc(F)c32)CO1 [Example 520, 2-(4-(difluoromethylene)piperidin-1-yl)-N-(6-fluoro-3,3-dimethyl-3,4-dihydro-1H-[1,4]oxazino[4,3-a]indol-9-yl)-4-((2-hydroxyethyl)sulfonamido)benzamide]	50 to 500 nM	50 to 500 nM	
O=C(Nc1ccnc2c1cc1n2CCOC1)c1ccc(NS(=O)(=O)CCO)cc1N1CCC(=C(F)F)CC1 [Compound 401, 2-(4-(difluoromethylene)piperidin-1-yl)-N-(8,9-dihydro-6H-pyrido[3′,2′:4,5]pyrrolo[2,1-c][1,4]oxazin-4-yl)-4-((2-hydroxyethyl)sulfonamido)benzamide]	≤ 50 nM	50 to 500 nM	
CC1(C)Cn2c(cc3c(NC(=O)c4ccc(NS(=O)(=O)CCO)cc4N4CCC5(CC4)CC5)ccc(OC(F)(F)F)c32)CO1 [Example 573]	≤ 50 nM	50 to 500 nM	
O=C(Nc1cccc2c1cnn2CC1CC1)c1ccc(NS(=O)(=O)CCO)cc1N1CCC2(CC1)CC2 [Example 287, N-(1-(cyclopropylmethyl)-1H-indazol-4-yl)-4-(2-hydroxyethylsulfonamido)-2-(6-azaspiro[2.5]octan-6-yl)benzamide]	50 to 500 nM	50 to 500 nM	
O=C(Nc1cccc2c1CCN2CC1CC1)c1ccc(NS(=O)(=O)CCO)cc1N1CCC2(CC1)CC2 [Example 5, N-(1-(cyclopropylmethyl)indoline-4-(2-hydroxyethyl)sulfonamido)-2-(6-azaspiro[2.5]octan-6-yl)benzamide]	≤ 50 nM		50 to 500 nM
CC(C)(O)Cn1ccc2c(NC(=O)c3ccc(NS(=O)(=O)CCO)cc3N3CCC4(CC3)CC4)cccc21 [Example 279, N-(1-(2-hydroxy-2-methylpropyl)-1H-indol-4-yl)-4-((2-hydroxyethyl)sulfonamido)-2-(6-azaspiro[2.5]oct-6-yl)benzamide]	50 to 500 nM	500 to 5000 nM	
COc1ccc(NC(=O)c2ccc(NS(=O)(=O)CCO)cc2N2CCC(=C(F)F)CC2)c2nc3n(c12)CC(C)(C)OC3 [Example 489]	50 to 500 nM	≤ 50 nM	
CC1Cn2c(cc3c(NC(=O)c4ccc(NS(=O)(=O)CCO)cc4N4CCC5(CC4)CC5)cccc32)C(C)O1 (single isomer, unassigned) [Compound 312-P2B, N-(1,3-dimethyl-3,4-dihydro-1H-[1,4]oxazino[4,3-a]indol-9-yl)-4-((2-hydroxyethyl)sulfonamido)-2-(6-azaspiro[2.5]oct-6-yl)benzamide]	50 to 500 nM		50 to 500 nM
O=C(Nc1ccc2c(c1)N1CCC(F)(F)CC1CO2)c1ccc(NS(=O)(=O)CCO)cc1N1CCC(=C(F)F)CC1 (centres unmarked) [Compound 399]	50 to 500 nM	500 to 5000 nM	
